Key:
Cdk2(C177A, F80C) = molecular target: T1, Cdk2(C177A, F80C) (Homo sapiens, UniProt P24941, C177A/F80C); experiment: Kinetic thiol consumption assay with Cdk2 mutant F80C, incl. kobs versus concentration (Kd, k2); format: binding; parameters: key to Rate enhancement, Cdk2 F80C: Cdk2 rate constant divided by model-thiol rate constant; conditions: additional mutation C177A; for Rate constant with Cdk2 F80C: Protein: Cdk2, cysteine position F80C, in h^-1
T1 construct: poly-histidine; made in house; host or cells: E. coli
Procedure, shortened: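 His-tagged Cdk2(C177A/F80C) from E. coli or model thiol, 5 μM in degassed phosphate buffer pH 8 with TCEP beads, reacted with acrylamide ligands; fluorescence (ex/em 380/470 nm) normalized to DMSO control and fitted to first-order decay for kobs. Kd and k2 obtained from hyperbolic fit of kobs versus ligand concentration.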

Cdk2(S276C) (C177A) = molecular target: T2, Cdk2(S276C) (C177A) (Homo sapiens, UniProt P24941, C177A/S276C); experiment: Kinetic thiol consumption assay with Cdk2 mutant S276C; format: binding; parameters: key to Rate enhancement, Cdk2 S276C: rate constant with Cdk2 ÷ rate constant with model thiol (fold); conditions: additional mutation C177A; for Rate constant with Cdk2 S276C: Protein: Cdk2, cysteine position S276C, in h^-1
T2 construct: poly-histidine; made in house; host or cells: E. coli
Procedure, shortened: (§1)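 Read-out is fluorescence at 380/470 nm, taken after 1 h at room temperature and normalized to a DMSO/thiol-only control over time. Thiol (5 μM Cdk2 mutant or model thiol) was in degassed pH 8 phosphate buffer with 2% v/v TCEP beads. Acrylamide rate constants for Cdk2 were divided by those with model thiol.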

Cdk2[C177A, F80C, K278C] = molecular target: T3, Cdk2[C177A, F80C, K278C] (Homo sapiens, UniProt P24941, C177A/F80C/K278C); experiment: Kinetic thiol consumption assay with mutant Cdk2 as model thiol; format: binding; parameters: unit not given here; conditions: 500 μM ligand, 5 μM thiol, phosphate buffer pH 8
T3 construct: poly-histidine; made in house; host or cells: E. coli
Procedure, shortened: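 First-order rate constants were derived by exponential-decay fitting of DMSO/thiol-normalized fluorescence (380/470 nm) over time at room temperature. Thiol was 5 μM E. coli-expressed His-tagged Cdk2 mutant C177A/F80C/K278C in degassed pH 8 phosphate buffer containing 2% v/v TCEP beads.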

Cdk2(R122C) (C177A) = molecular target: T4, Cdk2(R122C) (C177A) (Homo sapiens, UniProt P24941, C177A/R122C); experiment: Kinetic thiol consumption assay with Cdk2 mutant R122C; format: binding; parameters: key to Rate enhancement, Cdk2 R122C: rate constant with Cdk2 ÷ rate constant with model thiol (fold); conditions: additional mutation C177A; for Rate constant with Cdk2 R122C: Protein: Cdk2, cysteine position R122C, in h-1
T4 construct: poly-histidine; made in house; host or cells: E. coli
Procedure, shortened: as §1

Cdk2(S181C) (C177A) = molecular target: T5, Cdk2(S181C) (C177A) (Homo sapiens, UniProt P24941, C177A/S181C); experiment: Kinetic thiol consumption assay with Cdk2 mutant S181C; format: binding; parameters: key to Rate enhancement, Cdk2 S181C: rate constant with Cdk2 ÷ rate constant with model thiol (fold); conditions: additional mutation C177A; for Rate constant with Cdk2 S181C: Protein: Cdk2, cysteine position S181C, in h^-1
T5 construct: poly-histidine; made in house; host or cells: E. coli
Procedure, shortened: as §1

[1] = molecular target: T6, human cyclin-dependent kinase 2 (Cdk2) (Homo sapiens, UniProt P24941); experiment: Kinetic thiol consumption assay with wild type Cdk2 (C177); format: binding; parameters: key to Rate enhancement, Cdk2 WT: k(Cdk2) divided by k(model thiol); Rate constant with Cdk2 (k(Cdk2)): unit not given here; conditions: for Rate constant with Cdk2 (k(Cdk2)): 500 μM ligand, 5 μM thiol, phosphate buffer pH 8; for Rate enhancement, Cdk2 WT: no additional mutations; for Rate constant with Cdk2 WT: Protein: Cdk2, cysteine position WT, in h^-1; for k(Cdk2)/k(Cdk2_mut) rate enhancement: model thiol Cdk2[C177A, F80C, K278C]; for k(Cdk2)/k(GSH) rate enhancement: model thiol glutathione
T6 construct: poly-histidine; made in house; host or cells: E. coli
Procedure, shortened: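 His-tagged human Cdk2 from E. coli (sole surface cysteine C177) or a model thiol, each 5 μM in degassed phosphate buffer pH 8 with immobilized TCEP, reacted with acrylamides at room temperature. Fluorescence (ex 380/em 470) normalized to DMSO/thiol control over time; first-order rate constants, Cdk2 rate divided by model-thiol rate.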

[2] = Kinetic thiol consumption assay with model thiol glutathione; format: physicochemical; parameters: Rate constant with glutathione (k(GSH)): unit not given here; conditions: for Rate constant with glutathione (k(GSH)): 500 μM ligand, 5 μM thiol, phosphate buffer pH 8; for Rate constant with Glutathione: Protein: Glutathione, cysteine position NA, in h-1
Procedure, shortened: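 GSH 5 μM, degassed phosphate buffer pH 8, TCEP beads 2% v/v; acrylamide added; RT, 1 h; fluorescence ex/em 380/470 nm; normalized to DMSO/thiol control; k from first-order exponential decay fit.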

Cdk2(T182C) (C177A) = molecular target: T7, Cdk2(T182C) (C177A) (Homo sapiens, UniProt P24941, C177A/T182C); experiment: Kinetic thiol consumption assay with Cdk2 mutant T182C; format: binding; parameters: key to Rate enhancement, Cdk2 T182C: rate constant with Cdk2 ÷ rate constant with model thiol (fold); conditions: additional mutation C177A; for Rate constant with Cdk2 T182C: Protein: Cdk2, cysteine position T182C, in h^-1
T7 construct: poly-histidine; made in house; host or cells: E. coli
Procedure, shortened: as §1

Cdk2(N272C) (C177A) = molecular target: T8, Cdk2(N272C) (C177A) (Homo sapiens, UniProt P24941, C177A/N272C); experiment: Kinetic thiol consumption assay with Cdk2 mutant N272C; format: binding; parameters: key to Rate enhancement, Cdk2 N272: rate constant with Cdk2 ÷ rate constant with model thiol (fold); conditions: for Rate enhancement, Cdk2 N272: Cdk2 N272, additional mutation C177A; for Rate constant with Cdk2 N272C: Protein: Cdk2, cysteine position N272C, additional mutation C177A, in h^-1
T8 construct: poly-histidine; made in house; host or cells: E. coli
Procedure, shortened: as §1

Cdk2(H71C) (C177A) = molecular target: T9, Cdk2(H71C) (C177A) (Homo sapiens, UniProt P24941, C177A/H71C); experiment: Kinetic thiol consumption assay with Cdk2 mutant H71C; format: binding; parameters: key to Rate enhancement, Cdk2 H71C: rate constant with Cdk2 ÷ rate constant with model thiol (fold); conditions: additional mutation C177A; for Rate constant with Cdk2 H71C: Protein: Cdk2, cysteine position H71C, in h^-1
T9 construct: poly-histidine; made in house; host or cells: E. coli
Procedure, shortened: as §1

Rate enhancement, Cdk2 F80C (Cdk2(C177A, F80C))	Rate constant with Cdk2 F80C (Cdk2(C177A, F80C))	Rate enhancement, Cdk2 S276C (Cdk2(S276C) (C177A))	Rate constant with Cdk2 S276C (Cdk2(S276C) (C177A))	Rate constant with Cdk2[C177A, F80C, K278C] (k(Cdk2_mut)) (Cdk2[C177A, F80C, K278C])	Rate enhancement, Cdk2 R122C (Cdk2(R122C) (C177A))	Rate constant with Cdk2 R122C (Cdk2(R122C) (C177A))	Rate enhancement, Cdk2 S181C (Cdk2(S181C) (C177A))	Rate constant with Cdk2 S181C (Cdk2(S181C) (C177A))	Rate constant with Cdk2 (k(Cdk2)) [1]	Rate enhancement, Cdk2 WT [1]	Rate constant with Cdk2 WT [1]	k(Cdk2)/k(Cdk2_mut) rate enhancement [1]	k(Cdk2)/k(GSH) rate enhancement [1]	Rate enhancement, Cdk2 T182C (Cdk2(T182C) (C177A))	Rate constant with Cdk2 T182C (Cdk2(T182C) (C177A))	Rate enhancement, Cdk2 N272 (Cdk2(N272C) (C177A))	Rate constant with Cdk2 N272C (Cdk2(N272C) (C177A))	Structure (SMILES)	Rate constant with glutathione (k(GSH)) [2]	Rate constant with Glutathione [2]	further results
0.4897	0.01257	0.7713	0.0198	0.01555	0.2677	0.006872	1.051	0.02699	0.01328	0.5173	0.01328	0.854	0.5173	1.411	0.03623	0.5551	0.01425	C=CC(=O)N1CCN(C(=O)OCC)CC1c1cccs1 (stereo not shown) [EL-1121]	0.02567	0.02567	Rate enhancement, Cdk2 H71C (Cdk2(H71C) (C177A)): 1.52; Rate constant with Cdk2 H71C (Cdk2(H71C) (C177A)): 0.03901
13.67	0.9829	0.7229	0.05196	0.9197	0.3489	0.02508	0.4978	0.03578	0.2972	4.135	0.2972	0.3231	4.273	5.267	0.3786	0.4672	0.03358	C=CC(=O)Nc1nc2c(s1)CCCCCC2 [CA-170]	0.06955	0.07188	Rate enhancement, Cdk2 H71C (Cdk2(H71C) (C177A)): 0.9221; Rate constant with Cdk2 H71C (Cdk2(H71C) (C177A)): 0.06628
0.3805	0.01676	1.852	0.08156	0.01772	0.4465	0.01967	0.2036	0.00897	0.02811	0.6381	0.02811	1.586	0.6384	4.62	0.2035	0.7126	0.03139	C=CC(=O)N1CCn2cccc2C1c1ccccc1 (stereo not shown) [CA-187]	0.04403	0.04405	Rate enhancement, Cdk2 H71C (Cdk2(H71C) (C177A)): 1.456; Rate constant with Cdk2 H71C (Cdk2(H71C) (C177A)): 0.06414
0.7203	0.008291	1.017	0.0117	0.03487	0.5598	0.006443	0.4335	0.00499	0.01063	0.9235	0.01063	0.3049	0.9268	2.526	0.02907	0.8491	0.009773	C=CC(=O)Nc1cccc(-c2cc3ccccc3[nH]2)c1 [EL-1098]	0.01147	0.01151	Rate enhancement, Cdk2 H71C (Cdk2(H71C) (C177A)): 0.2587; Rate constant with Cdk2 H71C (Cdk2(H71C) (C177A)): 0.002978

— patent US11415579B2, “Assay for measuring a rate of reaction between a target and a ligand candidate” (Imperial College Innovations Ltd., priority 2016, dated 2022)
